Experimental data reported in PubChem BioAssay (NCI).
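These data come from cells grown in 96-well plates and exposed to compound for 48 hours at five concentrations. The concentration for 50% growth inhibition is given as GI50. Definition used: TGI = concentration required for complete inhibition of growth.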

Legend:
Assay in all cases: DTP human tumour cell line panel, 48 h; in the data active = GI50 below about 0.43 µM; inactive = the rest
[1] = system: NCI-H460 lung
[2] = system: A498 renal
[3] = system: OVCAR-4 ovarian
[4] = system: T-47D breast
[5] = system: UACC-62 melanoma
[6] = system: NCI/ADR-RES ovarian
[7] = system: SR leukemia
[8] = system: A549 NSCLC
[9] = system: 786-0 renal
[10] = system: M14 melanoma
[11] = system: RPMI-8226 leukemia
[12] = system: NCI-H522 lung
[13] = system: UACC-257 melanoma
[14] = system: NCI-H23 lung
[15] = system: EKVX NSCLC
[16] = system: KM12 colon
[17] = system: OVCAR-8 ovarian
[18] = system: SK-OV-3 ovarian
[19] = system: MALME-3M melanoma
[20] = system: U251 CNS
[21] = system: ACHN renal
[22] = system: HCT-116 colon
[23] = system: PC-3 prostate
[24] = system: CAKI-1 renal
[25] = system: OVCAR-5 ovarian
[26] = system: DU-145 prostate
[27] = system: UO-31 renal
[28] = system: BT-549 breast
[29] = system: SK-MEL-2 melanoma
[30] = system: LOX IMVI melanoma
[31] = system: SN12C renal
[32] = system: MOLT-4 leukemia
[33] = system: SNB-19 CNS
[34] = system: HCC-2998 colon
[35] = system: HL-60(TB) leukemia
[36] = system: SK-MEL-28 melanoma
[37] = system: HT29 colon
[38] = system: COLO 205 colon
[39] = system: NCI-H226 lung
[40] = system: TK-10 renal
[41] = system: MCF7 breast
[42] = system: SNB-75 CNS
[43] = system: MDA-MB-231 breast
[44] = system: SW-620 colon
[45] = system: HS 578T breast
[46] = system: HOP-62 NSCLC
[47] = system: HOP-92 NSCLC
[48] = system: SK-MEL-5 melanoma
[49] = system: CCRF-CEM leukemia
[50] = system: SF-539 CNS
[51] = system: K-562 leukemia
[52] = system: RXF 393 renal
[53] = system: IGROV1 ovarian
[54] = system: HCT-15 colon
[55] = system: SF-268 CNS
[56] = system: OVCAR-3 ovarian
[57] = system: SF-295 CNS

COc1ccc(C(=O)c2cc(C)c(OC)c(C)c2)c(OC)c1OC(=O)C(Cl)Cl
> 50500 nM: TGI [27]
73400 nM: TGI [45]
3270 nM: TGI [1]
4800 nM: TGI [26]
> 92900 nM: TGI [47]
27800 nM: TGI [11]
7030 nM: TGI [39]
1700 nM: TGI [28]
32400 nM: TGI [38]
71.9 nM: TGI [35]
> 49800 nM: TGI [37]
326 nM: TGI [48]
70.2 nM: TGI [50]
inactive: GI50 [2] 1740 nM | GI50 [4] 6370 nM | GI50 [5] 657 nM | GI50 [13] 25600 nM | GI50 [25] 5510 nM | GI50 [37] 3440 nM | GI50 [38] 6740 nM | GI50 [39] 2410 nM | GI50 [40] 17200 nM | GI50 [53] 464 nM
> 100000 nM: TGI [3] | TGI [4] | TGI [5] | TGI [6] | TGI [7] | TGI [8] | TGI [9] | TGI [10] | TGI [13] | TGI [14] | TGI [15] | TGI [16] | TGI [17] | TGI [18] | TGI [19] | TGI [20] | TGI [21] | TGI [22] | TGI [23] | TGI [24] | TGI [25] | TGI [29] | TGI [30] | TGI [31] | TGI [32] | TGI [33] | TGI [36] | TGI [40] | TGI [41] | TGI [42] | TGI [43] | TGI [44] | TGI [46] | TGI [49] | TGI [51] | TGI [52] | TGI [53] | TGI [54] | TGI [55]
5890 nM: TGI [2]
> 25100 nM: TGI [57]
1200 nM: TGI [12]
active: GI50 [1] 62.9 nM | GI50 [3] 422 nM | GI50 [6] 32.4 nM | GI50 [7] 18.1 nM | GI50 [8] 361 nM | GI50 [9] 396 nM | GI50 [10] 22.9 nM | GI50 [11] 41.6 nM | GI50 [12] 28.6 nM | GI50 [14] 68.1 nM | GI50 [15] 321 nM | GI50 [16] 36.2 nM | GI50 [17] 45.6 nM | GI50 [18] 163 nM | GI50 [19] 71.4 nM | GI50 [20] 46.8 nM | GI50 [21] 55.4 nM | GI50 [22] 97.6 nM | GI50 [23] 43.6 nM | GI50 [24] 338 nM | GI50 [26] 37.7 nM | GI50 [27] 65.8 nM | GI50 [28] 29.3 nM | GI50 [29] 132 nM | GI50 [30] 45.5 nM | GI50 [31] 95.6 nM | GI50 [32] 43.6 nM | GI50 [33] 43.2 nM | GI50 [34] 178 nM | GI50 [35] 25.1 nM | GI50 [36] 63.2 nM | GI50 [41] 200 nM | GI50 [42] 31 nM | GI50 [43] 75 nM | GI50 [44] 37.7 nM | GI50 [45] 29.4 nM | GI50 [46] 221 nM | GI50 [47] 216 nM | GI50 [48] 52.1 nM | GI50 [49] 38.6 nM | GI50 [50] 23.8 nM | GI50 [51] 33.6 nM | GI50 [52] 257 nM | GI50 [54] 33.9 nM | GI50 [55] 198 nM | GI50 [56] 35.3 nM | GI50 [57] 164 nM
> 23600 nM: TGI [34]
